This passage reports AC50, EC50 and IC50 results from ChEMBL document CHEMBL1201862, “PubChem BioAssay data set” (2004).

The AC50 is the midpoint of the concentration-response curve, whichever way the signal moves. Usually EC50 stands for the concentration that produces a half-maximal response. As a reminder, the IC50 is the concentration that inhibits the measured activity by half.

Among the targets are Cytochrome P450 2C9 (Homo sapiens, UniProt P11712); Cytochrome P450 2D6 (Homo sapiens, UniProt P10635); Cytochrome P450 3A4 (Homo sapiens, UniProt P08684).
In assay [1] the target is T1, Heat shock factor protein 1 (Mus musculus, UniProt P38532).
T1 sequence (P38532 whole entry): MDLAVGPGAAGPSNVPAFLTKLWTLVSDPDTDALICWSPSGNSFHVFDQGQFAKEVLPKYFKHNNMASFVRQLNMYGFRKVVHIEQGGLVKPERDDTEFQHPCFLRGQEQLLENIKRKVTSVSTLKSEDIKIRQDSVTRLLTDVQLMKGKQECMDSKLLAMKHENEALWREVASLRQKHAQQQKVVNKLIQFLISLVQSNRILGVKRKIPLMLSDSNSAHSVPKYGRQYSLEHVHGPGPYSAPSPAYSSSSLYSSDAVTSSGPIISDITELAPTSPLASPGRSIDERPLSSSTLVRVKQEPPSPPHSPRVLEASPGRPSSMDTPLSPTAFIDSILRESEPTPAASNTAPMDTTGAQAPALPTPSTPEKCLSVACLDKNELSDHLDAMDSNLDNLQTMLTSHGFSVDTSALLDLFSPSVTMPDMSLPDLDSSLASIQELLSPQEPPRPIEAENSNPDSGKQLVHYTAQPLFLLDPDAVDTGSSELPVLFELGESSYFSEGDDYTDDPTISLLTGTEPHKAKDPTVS
Briefly: inhibition of MG132-induced HSE-luciferase signal, confirmation, cell-based, NIH3T3, luminescence, dose retest (AID 2382).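 Note: NIH3T3 fibroblasts with HSF1-driven luciferase reporter stressed by proteasome inhibitor MG132; luminescence from HSF1-driven luciferase expression after 8 hours of MG132 stress.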 The format is functional.

Assay [2] deals with T2, Rac GTPase-activating protein 1 (Homo sapiens, UniProt Q9H0H5).
T2 sequence (Q9H0H5 whole entry): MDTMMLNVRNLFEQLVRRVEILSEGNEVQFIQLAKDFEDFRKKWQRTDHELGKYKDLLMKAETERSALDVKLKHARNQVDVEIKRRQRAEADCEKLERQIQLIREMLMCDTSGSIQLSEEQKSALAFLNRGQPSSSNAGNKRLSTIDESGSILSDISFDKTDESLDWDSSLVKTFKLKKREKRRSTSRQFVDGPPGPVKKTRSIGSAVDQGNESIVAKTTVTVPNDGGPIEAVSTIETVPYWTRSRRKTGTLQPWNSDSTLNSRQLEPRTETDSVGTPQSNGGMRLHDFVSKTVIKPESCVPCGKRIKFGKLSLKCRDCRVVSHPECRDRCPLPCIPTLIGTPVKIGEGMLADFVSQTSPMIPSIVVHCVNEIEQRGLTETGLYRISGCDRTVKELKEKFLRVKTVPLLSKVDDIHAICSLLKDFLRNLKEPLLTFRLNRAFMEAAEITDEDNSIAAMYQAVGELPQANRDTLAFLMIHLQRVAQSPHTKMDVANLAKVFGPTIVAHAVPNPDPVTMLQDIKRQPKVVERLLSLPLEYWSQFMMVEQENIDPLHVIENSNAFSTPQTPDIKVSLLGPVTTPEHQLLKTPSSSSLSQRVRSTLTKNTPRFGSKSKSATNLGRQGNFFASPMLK
Briefly: MgcRacGAP GTPase-activating activity inhibitors, confirmation, biochemical, ADP Hunter fluorescence, primary and confirmatory (AID 624330). The format is functional.

The nature of assay [3]: inhibitors of intracellular T. cruzi replication, confirmation, NIH3T3 host cells, beta-gal luminescence (AID 2044).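 Note: intracellular parasites grown in NIH/3T3 mouse fibroblasts as host cells; luminescent beta-galactosidase reporter signal from transgenic T. cruzi replicating inside host cells; inhibitors lower the luminescence signal.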 Type of assay: functional, cell-based.
The nature of assay [4]: cytotoxicity toward NIH3T3 fibroblasts, dose response, counter-screen, cell-based, ATP luminescence, mouse fibroblasts (AID 2010).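 Note: cells exposed to compound for about 90 hours before reading.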 The format is functional. For orientation: A counterscreen serves to expose hits that act by an unwanted route or on another target.
Assay [5] is described as follows: NIH-3T3 fibroblast cytotoxicity, dose response, cytotoxicity control, cell-based, fluorescence, Alamar Blue, secondary assay (AID 2327).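 Note: NIH-3T3 mouse fibroblasts cultured with fluconazole at 8 µg/mL.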 The format is functional. For orientation: The colour change of resazurin is a common sign of viable cells or microbes.
A further assay is described as follows: cells. The format is functional.
Assay [6] in a line: Luminescence Cell-Based Dose Retest to Confirm Inhibitors of Cancer Stem Cells. [Related pubchem assays (depositor defined):AID2717, AID2721]. Type of assay: functional. Particulars: Homo sapiens.
For the next assay, the system named is INS1. Briefly: beta cell apoptosis inhibitors, cytokine rescue, dose response, luminescence, retest (AID 449756).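 Note: cell death triggered by IL-1 beta plus TNF-alpha plus IFN-gamma mixture; protective hits raise ATP signal compared with cytokine alone wells.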 The format is functional, cell-based. Particulars: Rattus norvegicus.
The next assay has as its target Cytochrome P450 2C19 (Homo sapiens, UniProt P33261). The assay is described as follows: Cytochrome panel assay with activity outcomes. Panel member name: p450-cyp2c19 Compounds with AC50 equal or less than 10 uM are considered active. Type of assay: functional. The note with it: read-out: AC50.
Another assay has as its target T3, Cytochrome P450 1A2 (Homo sapiens, UniProt P05177).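 Note: PubChem cytochrome P450 panel assay, CYP1A2 panel member.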
T3 sequence (P05177 whole entry): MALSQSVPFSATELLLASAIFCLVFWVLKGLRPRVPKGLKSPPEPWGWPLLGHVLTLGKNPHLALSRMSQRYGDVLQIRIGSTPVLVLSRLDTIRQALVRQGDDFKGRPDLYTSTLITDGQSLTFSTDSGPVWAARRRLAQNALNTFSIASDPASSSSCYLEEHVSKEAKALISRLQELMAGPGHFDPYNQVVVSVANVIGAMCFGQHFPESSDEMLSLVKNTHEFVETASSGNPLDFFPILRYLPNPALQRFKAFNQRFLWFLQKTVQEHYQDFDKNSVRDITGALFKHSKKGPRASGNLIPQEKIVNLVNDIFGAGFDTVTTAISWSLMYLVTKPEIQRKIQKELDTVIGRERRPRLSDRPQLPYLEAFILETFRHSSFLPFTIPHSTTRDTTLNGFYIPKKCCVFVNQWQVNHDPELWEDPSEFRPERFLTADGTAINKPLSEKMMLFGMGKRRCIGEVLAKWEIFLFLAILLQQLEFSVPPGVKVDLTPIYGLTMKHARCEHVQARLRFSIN

Activity calls are given as the source filed them.

Sequence of Cytochrome P450 2C9 (P11712 whole entry): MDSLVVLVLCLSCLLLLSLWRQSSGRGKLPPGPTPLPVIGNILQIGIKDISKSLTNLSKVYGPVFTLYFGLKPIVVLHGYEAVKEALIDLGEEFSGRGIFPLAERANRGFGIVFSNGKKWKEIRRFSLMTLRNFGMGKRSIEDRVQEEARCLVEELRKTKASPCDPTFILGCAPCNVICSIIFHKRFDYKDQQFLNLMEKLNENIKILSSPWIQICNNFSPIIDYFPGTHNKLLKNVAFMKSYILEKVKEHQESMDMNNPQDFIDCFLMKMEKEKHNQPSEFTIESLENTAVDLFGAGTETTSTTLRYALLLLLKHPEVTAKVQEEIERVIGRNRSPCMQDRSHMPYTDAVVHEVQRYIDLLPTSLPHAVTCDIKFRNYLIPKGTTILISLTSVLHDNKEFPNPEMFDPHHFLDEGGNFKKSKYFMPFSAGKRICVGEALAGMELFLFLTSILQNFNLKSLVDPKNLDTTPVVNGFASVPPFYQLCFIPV
Sequence of Cytochrome P450 3A4 (P08684 whole entry): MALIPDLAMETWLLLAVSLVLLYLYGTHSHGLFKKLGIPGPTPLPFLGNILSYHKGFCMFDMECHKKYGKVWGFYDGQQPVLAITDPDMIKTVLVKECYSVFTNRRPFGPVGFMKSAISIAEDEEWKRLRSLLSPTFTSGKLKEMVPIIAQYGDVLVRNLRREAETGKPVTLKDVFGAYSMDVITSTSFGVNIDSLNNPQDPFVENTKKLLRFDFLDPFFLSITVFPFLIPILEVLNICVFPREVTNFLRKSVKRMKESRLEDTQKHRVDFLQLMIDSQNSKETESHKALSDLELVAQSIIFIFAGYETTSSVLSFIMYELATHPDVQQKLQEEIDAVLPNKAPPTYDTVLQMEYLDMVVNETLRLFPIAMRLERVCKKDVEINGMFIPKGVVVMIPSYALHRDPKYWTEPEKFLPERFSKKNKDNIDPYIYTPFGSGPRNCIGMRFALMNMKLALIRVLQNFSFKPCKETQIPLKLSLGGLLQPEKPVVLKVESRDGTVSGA
Sequence of Cytochrome P450 2C19 (P33261 whole entry): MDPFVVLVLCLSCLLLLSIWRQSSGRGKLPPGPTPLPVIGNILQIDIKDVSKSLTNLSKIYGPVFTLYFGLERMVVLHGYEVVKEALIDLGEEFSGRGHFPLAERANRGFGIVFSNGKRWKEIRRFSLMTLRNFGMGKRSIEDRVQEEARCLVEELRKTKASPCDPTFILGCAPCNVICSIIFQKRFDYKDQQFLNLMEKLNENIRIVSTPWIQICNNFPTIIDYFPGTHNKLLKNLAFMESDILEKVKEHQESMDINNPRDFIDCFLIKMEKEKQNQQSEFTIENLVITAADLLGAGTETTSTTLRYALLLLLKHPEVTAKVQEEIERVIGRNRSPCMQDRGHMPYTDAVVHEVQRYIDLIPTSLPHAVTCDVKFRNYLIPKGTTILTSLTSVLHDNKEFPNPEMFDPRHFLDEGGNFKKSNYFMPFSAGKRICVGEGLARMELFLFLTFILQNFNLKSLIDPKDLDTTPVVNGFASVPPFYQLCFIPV
Sequence of Cytochrome P450 2D6 (P10635 whole entry): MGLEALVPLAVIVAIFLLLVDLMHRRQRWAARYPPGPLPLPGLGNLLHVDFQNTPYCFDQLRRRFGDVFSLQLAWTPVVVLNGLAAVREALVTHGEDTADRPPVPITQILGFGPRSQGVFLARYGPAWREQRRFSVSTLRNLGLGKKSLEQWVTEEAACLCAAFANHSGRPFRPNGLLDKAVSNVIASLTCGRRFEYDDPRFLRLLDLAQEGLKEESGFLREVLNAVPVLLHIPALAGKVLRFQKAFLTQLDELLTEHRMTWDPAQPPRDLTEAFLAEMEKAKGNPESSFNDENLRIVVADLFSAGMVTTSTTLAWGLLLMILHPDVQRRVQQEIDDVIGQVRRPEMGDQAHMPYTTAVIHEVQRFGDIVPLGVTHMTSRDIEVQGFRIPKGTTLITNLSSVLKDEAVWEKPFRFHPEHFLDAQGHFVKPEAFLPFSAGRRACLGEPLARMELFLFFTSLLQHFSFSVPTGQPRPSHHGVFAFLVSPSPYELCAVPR

Turning to `Cc1nc2sccc2c(=O)n1-c1cccc(Cl)c1`, the AC50 at Cytochrome P450 2C9 is 20 µM (inconclusive); at Cytochrome P450 2D6 it was 12.6 µM (inconclusive). Turning to `CC1(C)CC(=O)C2=C(C1)N(c1ccc(F)cc1)C(=O)CC2c1ccccc1` (stereo unspecified), in assay [1], the EC50 is > 195 µM (not active). As to `COc1cc(OC)c(CN2CCCN(C)CC2)cc1Br`, in assay [2], the IC50 was 107 µM (active). For the molecule `Cc1ccc(NC(=O)CNCCCN2CCOCC2)cc1S(=O)(=O)N1CCCCC1`, the IC50 in assay [2] is 76.5 µM (active).

`COc1nc(Nc2ccc(O)cc2)nc(OC(C(F)(F)F)C(F)(F)F)n1`: the half-maximal inhibitory concentration (IC50) in assay [2] was 35.1 µM (active).

For the molecule `Cn1cc(/C=C(\C#N)C(=O)Nc2cccc([N+](=O)[O-])c2)c2ccccc21`, in assay [1], the EC50 was 4.14 µM (active). `S=C(NCCSCc1c(Cl)cccc1Cl)Nc1ccccc1`: the values for the EC50 in assay [3], in assay [4] and in [5] were 2.94 µM (active), > 60 µM (not active) and > 160 µM (inactive), respectively. Besides, the AC50 at Cytochrome P450 2C9 is 10 µM (inconclusive). For `Cc1ccc(C)c(NC(=O)c2cc([N+](=O)[O-])cc([N+](=O)[O-])c2)c1`, in “cells”, the IC50 is 10.1 µM (active). For `C=C1SC(Nc2c(C)cc(C)cc2C)=NC12CCCCC2`, the results for the concentration giving a half-maximal response (EC50) in assay [1], in assay [3] and in [4] were > 195 µM (not active), 0.561 µM (active) and > 60 µM (not active), respectively. With `Cc1cc(=O)oc(C)c1C(=O)NCc1cccnc1`, the results for the AC50 at Cytochrome P450 2C9 and at Cytochrome P450 3A4 were 3.16 µM (inconclusive) and 25.1 µM (inconclusive), respectively. As to `CCCn1nnnc1-c1cccc(Cl)c1`, the AC50 at Cytochrome P450 2C9 is 1.26 µM (inconclusive).

`Cc1ccc(C(=O)N2N=C(c3ccc(Br)cc3)CC2c2ccccc2O)cc1` (stereo unspecified): the AC50 in assay [6] is 3.63 µM (active); in the assay with INS1, 7.42 µM (active). Further, the figures for the EC50 in [3] and in assay [4] were 2.15 µM (active) and 13.6 µM (active), respectively. Consider `COc1cc(N)ccc1NC(=O)c1cccs1`, for which, in assay [2], the half-maximal inhibitory concentration (IC50) was 106 µM (active). For `CCn1nnc(NC(=O)COc2ccc(C3CCCCC3)cc2)n1`, in “cells”, the IC50 is 18.4 µM (active). As to `CC(=O)COc1ccccc1OC(=O)c1ccco1`, in assay [1], the EC50 was > 195 µM (not active). Same read-out and setting: the result for `COc1ccc2nc(NC(=O)CN3CCOCC3)sc2c1` reads > 195 µM (not active).

For `CN(Cc1ccccc1)C(=O)C1CCCN(Cc2ccc(Cl)cc2)C1` (stereo unspecified), the IC50 in assay [2] is 161 µM (active). In the case of `NC(=O)CC(NC(=O)Cc1ccc(Br)cc1)c1ccc(N2CCC(Cc3ccccc3)CC2)c([N+](=O)[O-])c1` (stereo unspecified), the AC50 in [6] was 12.3 µM (active). As to `OCC#CCSc1nnc(-c2ccc(Br)cc2)o1`, the IC50 in “cells” was 5.2 µM (active). As to `COc1cccc2cc(C(=O)OC3CCN(C)CC3)c(=O)oc12`, in [1], the EC50 was > 195 µM (not active). For `Brc1c(-c2ccc3c(c2)OCO3)nc2ncccn12`, the IC50 in “cells” was 4.7 µM (active). In the case of `CNc1ncc(C(=O)c2ccccc2)s1`, the AC50 was 7.94 µM (inconclusive) at Cytochrome P450 2C9, 28.2 µM (inconclusive) on Cytochrome P450 3A4 and 2.24 µM (inconclusive) on Cytochrome P450 2C19.

Turning to `COc1ccc(CNc2ncc(-c3ccc(F)cc3)n2C)cc1OC`, in [2], the IC50 is 56.8 µM (active). On the same count and under the same terms, for `C=CCNC(=S)N1CCN(Cc2ccc3c(c2)OCO3)CC1` the value was 158 µM (active). Regarding `CS(=O)(=O)N(CC(=O)NCc1ccccc1)C1CCCCC1`, the EC50 in [1] is recorded as > 195 µM (not active). Same read-out and setting: for `O=C1CCC(=O)N1CNc1ccccn1` the value was > 195 µM (not active); for `CCOC(=O)c1c(NC(=O)CNC2CCCc3ccccc32)sc(C(N)=O)c1C` (stereo unspecified), 25 µM (active). Take `Cc1noc(C)c1CS(=O)(=O)c1ccc(Br)cc1`: the AC50 on Cytochrome P450 2C9 was 31.6 µM (inconclusive). `O=C(NCc1ccc2c(c1)OCO2)c1cc2c(s1)CS(=O)(=O)C2`: the EC50 in assay [1] is on record as > 195 µM (not active). The same measure, in the same setting: the result for `CCCCOc1ccc(N2CC(C(=O)NCCc3ccc(OC)c(OC)c3)CC2=O)cc1` (stereo unspecified) reads > 195 µM (not active).

For the molecule `CCNC(=O)NC(=O)CSc1nc2ccccc2n1CC(C)C`, the AC50 at Cytochrome P450 2C9 was 20 µM (inconclusive); on Cytochrome P450 2D6, 14.1 µM (inconclusive).

Take `CCC1C=CC=CC[C@H](C)[C@@H](O)[C@](C)(O)C(=O)[C@@H](C)[C@H](O)[C@@H](C)C(=O)[C@H](C)[C@@H](O)[C@H](C)C=CC(=O)OC2[C@@H](C)C(CC1)OC1(CC[C@@H](C)C(C[C@H](C)O)O1)[C@@H]2C` (stereo partly specified): in assay [6], the AC50 is 2.9 µM (active). As to `CCc1cccc(NC(=O)COC(=O)/C=C/c2cccs2)c1`, in assay [1], the EC50 is on record as > 195 µM (not active). For the molecule `NCCc1c[nH]c2ccc(OC(=O)C(=O)O)cc12`, the AC50 at Cytochrome P450 2C9 was 3.98 µM (inconclusive); at Cytochrome P450 2C19, 1.58 µM (inconclusive). As for `COc1cc2c(cc1OC)C(C(=O)Nc1cccc(C)n1)C(c1cccnc1)N(C)C2=O` (stereo unspecified), the figures for the AC50 at Cytochrome P450 2C9 and at Cytochrome P450 3A4 were 0.00562 µM (inconclusive) and 15.8 µM (inconclusive), respectively.

Regarding `CCCCN=C(NNc1ccc(Br)cc1)C(=O)OCC`, the AC50 in assay [6] is 2.89 µM (active). Turning to `CCOC(=O)c1nn(-c2ccccc2)c2nc(Nc3ccccc3)cc(=O)n12`, the IC50 in “cells” is 5.99 µM (active). As for `COCCNC(=O)c1ccc2c(c1)ncn2-c1ccc(F)c(F)c1`, the AC50 on Cytochrome P450 2C9 is 17.8 µM (inconclusive); on Cytochrome P450 2C19, 28.2 µM (inconclusive). `COc1ncc2nc(CCc3ccccc3)c(=O)n(-c3ccccc3)c2n1`: the AC50 at Cytochrome P450 2C9 is 25.1 µM (inconclusive).

Consider `CCOc1ncccc1C(=O)OCC(=O)N1CCc2ccccc21`, for which the IC50 in the assay “cells” is 13.9 µM (active). On the same count and under the same terms, for `COC(=O)COc1ccc2c(=O)c(-c3ccccc3OC)coc2c1` the value was 5.9 µM (active).

For the molecule `COC(=O)[C@@H]1C[C@H]1[C@@H](NC(=O)c1cc(C)on1)c1ccccc1`, the AC50 on Cytochrome P450 2C9 was 39.8 µM (inconclusive); at Cytochrome P450 3A4, 31.6 µM (inconclusive). For `CNC(C)C(=O)NC(C(=O)N1CCCC1C(=O)NNc1ccccc1)C(C)C` (stereo unspecified), the half-maximal activity concentration (AC50) in assay [6] is 2.17 µM (active). Regarding `C[C@@H]1CCCC(CC(=O)O)(CC(=O)O)C1`, the AC50 on Cytochrome P450 1A2 was 0.631 µM (inconclusive). Consider `C/C(=N\NC(=O)c1nnn(-c2nonc2N)c1CN1CCc2ccccc21)c1ccccc1O`, for which the results for the AC50 (in assay [6]; in the assay on INS1) were 2.72 µM (active) and 1.98 µM (active), respectively. For the molecule `CSc1ncnc2c1ncn2CCCNc1ccc(C)c(C)c1`, the IC50 in [2] is 207 µM (active). With `O=C(N/N=C/c1ccc(OC(=O)c2ccco2)cc1)c1ccccn1`, the IC50 in the assay “cells” was 20.6 µM (active).

On to `Oc1ccccc1/C=N/C1=NN(c2cccc(C(F)(F)F)c2)CC1`, for which the IC50 in assay [2] was 16.9 µM (active).
